This passage reports IC50 and inhibition results from ChEMBL document CHEMBL4665632, “Design, synthesis and biological evaluation of pyridone-aminal derivatives as MNK1/2 inhibitors” (Bioorg Med Chem, 2019).

Molecules are shown by their SMILES.

As usually defined, the IC50 is the concentration that inhibits the measured activity by half. The term inhibition denotes the relative decrease from the control value, in per cent.

In experiment [1] the target is T1, MAP kinase-interacting serine/threonine-protein kinase 1 (Homo sapiens, UniProt Q9BUB5). Put plainly: Inhibition of recombinant human N-terminal DYKDDDDK-tagged MNK1(1 to 424 residues) expressed in baculovirus expression system using TATKSGSTTKNR as substrate preincubated for 10 mins followed by ATP addition and measured after 40 mins by luminescence based assay.
Target sequence in this assay (Q9BUB5 whole entry, the tested form may be a part): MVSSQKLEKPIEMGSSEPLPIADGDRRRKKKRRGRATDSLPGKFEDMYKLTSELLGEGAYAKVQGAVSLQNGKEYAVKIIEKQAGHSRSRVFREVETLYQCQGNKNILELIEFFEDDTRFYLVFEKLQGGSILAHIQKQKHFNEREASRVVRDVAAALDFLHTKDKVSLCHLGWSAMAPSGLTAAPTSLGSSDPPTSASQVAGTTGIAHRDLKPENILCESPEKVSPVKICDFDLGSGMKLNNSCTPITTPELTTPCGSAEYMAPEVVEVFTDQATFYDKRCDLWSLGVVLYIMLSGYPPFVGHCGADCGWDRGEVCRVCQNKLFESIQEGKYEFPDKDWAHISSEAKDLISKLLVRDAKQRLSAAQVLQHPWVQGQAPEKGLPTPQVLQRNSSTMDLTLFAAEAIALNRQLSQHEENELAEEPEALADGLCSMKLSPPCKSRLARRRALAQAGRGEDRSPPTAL

The target in experiment [2] is T2, MAP kinase-interacting serine/threonine-protein kinase 2 (Homo sapiens, UniProt Q9HBH9). Put plainly: Inhibition of MNK2 (unknown origin) at 100 nM incubated for 60 mins by HTRF assay. (In general: Time-resolved FRET reads energy transfer from a long-lived donor to a nearby acceptor.)
Target sequence in this assay (Q9HBH9 whole entry, looked up): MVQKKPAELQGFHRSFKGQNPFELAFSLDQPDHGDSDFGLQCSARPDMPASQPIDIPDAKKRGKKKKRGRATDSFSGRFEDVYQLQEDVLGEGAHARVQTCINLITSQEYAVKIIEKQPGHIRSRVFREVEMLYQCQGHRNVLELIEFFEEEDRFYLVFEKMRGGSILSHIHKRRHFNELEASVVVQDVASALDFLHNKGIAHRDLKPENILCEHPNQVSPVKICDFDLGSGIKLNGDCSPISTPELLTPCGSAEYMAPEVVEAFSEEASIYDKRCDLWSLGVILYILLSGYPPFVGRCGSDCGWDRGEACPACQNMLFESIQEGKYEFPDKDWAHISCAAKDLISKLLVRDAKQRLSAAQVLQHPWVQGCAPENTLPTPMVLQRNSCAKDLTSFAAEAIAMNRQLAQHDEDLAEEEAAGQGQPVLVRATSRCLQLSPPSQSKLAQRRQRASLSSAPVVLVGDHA
Experiment [3] deals with T1, MAP kinase-interacting serine/threonine-protein kinase 1. In words: Inhibition of MNK1 (unknown origin) at 100 nM incubated for 60 mins by HTRF assay.
Target sequence in this assay (Q9BUB5 whole entry, looked up, the tested form may be a part): as the sequence (Q9BUB5 whole entry, the tested form may be a part) above
For experiment [4], the target named is T2, MAP kinase-interacting serine/threonine-protein kinase 2. Put plainly: Inhibition of recombinant human N-terminal GST-tagged MNK2 (1 to 465 residues) expressed in baculovirus expression system using TATKSGSTTKNR as substrate preincubated for 10 mins followed by ATP addition and measured after 40 mins by luminescence based assay.
Target sequence in this assay (Q9HBH9 whole entry): as the sequence (Q9HBH9 whole entry, looked up) above
The nature of experiment [5]: Antiproliferative activity against […] cells assessed as reduction in cell viability at 20 uM incubated for 72 hrs by MTT assay relative to control. The format is functional, Mus musculus.
The test system of experiment [6] is HCT-116. In words: Antiproliferative activity against human HCT-116 cells assessed as reduction in cell viability at 20 uM incubated for 72 hrs by MTT assay relative to control. The format is functional. A general note: Tetrazolium dyes change colour on reduction, which living cells bring about.
The test system of experiment [7] is TMD8. Put plainly: Antiproliferative activity against human TMD8 cells assessed as reduction in cell viability incubated for 72 hrs by MTT assay. The format is functional, cell-based. Particulars: TMD8, 72 h.
In experiment [8] the test system is MV4-11. Put plainly: Antiproliferative activity against human MV4-11 cells assessed as reduction in cell viability incubated for 72 hrs by MTT assay. The class given is functional, cell-based. Particulars: MV4-11, 72 h.
The subject of experiment [9] is MDA-MB-435. In words: Antiproliferative activity against human MDA-MB-435 cells assessed as reduction in cell viability at 20 uM incubated for 72 hrs by MTT assay relative to control. The class given is functional.
For experiment [10], the system named is K562. In words: Antiproliferative activity against human K562 cells assessed as reduction in cell viability incubated for 72 hrs by MTT assay. The format is functional, cell-based. Particulars: K562, 72 h.
Experiment [11] concerns A549. In words: Antiproliferative activity against human A549 cells assessed as reduction in cell viability incubated at 20 uM for 72 hrs by MTT assay relative to control. The class given is functional.

Take `Cc1cc(Nc2ncccn2)c(=O)n2c1C(=O)NC21CCCCC1`: the half-maximal inhibitory concentration (IC50) in experiment [1] and in experiment [4] was greater than 500 nM in each case. Besides, the inhibition in [2] worked out at 18.9%; in experiment [3], 22.4%.
As for `Cc1cc(Nc2cc(N3CCN(C)CC3)ncn2)c(=O)n2c1C(=O)NC21CCCCC1`, the IC50 in experiment [1] is 51.2 nM; in experiment [7], 4810 nM; in experiment [8], greater than 20000 nM; in experiment [10], 17900 nM; in experiment [4], 42.1 nM. Further, the inhibition at 20 µM in experiment [5] is 38.8%; in experiment [6], 65.2%; in [9] it was 44.3%; in [11], 39%. The inhibition turned out to be 66.8% in [2] and 54.4% in [3].
Turning to `Cc1cccc(Nc2cc(C)c3n(c2=O)C2(CCCCC2)NC3=O)n1`, the IC50 in [1] and in [4] was greater than 500 nM in each case. Also, the results for the inhibition in experiment [2] and in experiment [3] were 13.4% and 19.8%, respectively.
Consider `Cc1cc(Nc2cc(N3CCOCC3)ncn2)c(=O)n2c1C(=O)NC21CCCCC1`, for which the results for the IC50 in experiment [1] and in experiment [4] were greater than 500 nM and 454 nM, respectively. Also, the inhibition in experiment [2] was 35.5%; in experiment [3], 21.4%.
For `Cc1cccnc1Nc1cc(C)c2n(c1=O)C1(CCCCC1)NC2=O` the same measures were greater than 500 nM, greater than 500 nM, 23% and 17.8%.
Take `CC(=O)N1CCN(c2cc(Nc3cc(C)c4n(c3=O)C3(CCCCC3)NC4=O)ncn2)CC1`: the IC50 was 68.9 nM in [1]; 8330 nM in experiment [7]; greater than 20000 nM in [8]; greater than 20000 nM in experiment [10]; 63.8 nM in [4]. The inhibition at 20 µM in [5] came out at 46.7%; in [6], 28.9%; in [9] it was 16%; in [11], 28.8%. Also, the values for the inhibition in experiment [2] and in experiment [3] were 86.9% and 73.3%, respectively.
In the case of `Cc1cc(Nc2cn(C)nc2N)c(=O)n2c1C(=O)NC21CCCCC1`, the IC50 in experiment [1] was found to be 479 nM; in [4], 389 nM. The inhibition was determined as 55.4% in [2] and 53.2% in [3].
Regarding `Cc1cc(Nc2cc(NC3CCNCC3)ncn2)c(=O)n2c1C(=O)NC21CCCCC1`, the IC50 in experiment [1] was 55.2 nM; in experiment [7], 11000 nM; in experiment [8], 18500 nM; in [10], greater than 20000 nM; in experiment [4], 49.8 nM. The inhibition at 20 µM in [5] worked out at 18.5%; in experiment [6], 35.2%; in [9], 59.2%; in experiment [11], 43.9%. Further, the results for the inhibition in experiment [2] and in experiment [3] were 75.8% and 66.4%, respectively.
As for `Cc1cc(Nc2ccnc(N)n2)c(=O)n2c1C(=O)NC21CCCCC1`, the IC50 in experiment [1] is 390 nM; in experiment [7] it was greater than 20000 nM; in [8], greater than 20000 nM; in experiment [10], greater than 20000 nM; in experiment [4], 228 nM. Moreover, the inhibition at 20 µM in [5] came out at 35%; in [6], 30.7%; in [9], 25.8%; in experiment [11], 22.6%. In addition, the figures for the inhibition in experiment [2] and in experiment [3] were 66.3% and 52.7%, respectively.
`Cc1cc(Nc2ccccn2)c(=O)n2c1C(=O)NC21CCCCC1`: the IC50 in [1] and in experiment [4] was greater than 500 nM throughout. Besides, the inhibition was determined as 16.2% in experiment [2] and 19.5% in experiment [3].
Consider `Cc1cc(Nc2nccc(N)n2)c(=O)n2c1C(=O)NC21CCCCC1`, for which the half-maximal inhibitory concentration (IC50) in experiment [1] and in [4] was greater than 500 nM each time. Further, the inhibition turned out to be 30.2% in [2] and 33.2% in [3].
Regarding `Cc1cc(Nc2cc(N3CCNCC3)ncn2)c(=O)n2c1C(=O)NC21CCCCC1`, the IC50 came out at 20.7 nM in [1]; 1810 nM in experiment [7]; 11000 nM in experiment [8]; 8780 nM in [10]; 18.3 nM in [4]. Moreover, the inhibition at 20 µM in experiment [5] is 18.8%; in experiment [6] it was 59.9%; in [9] it was 35.2%; in experiment [11] it was 24.6%. Further, the inhibition in experiment [2] stood at 87.7%; in experiment [3], 66.5%.
`Cc1cc(Nc2ccnc(N)c2)c(=O)n2c1C(=O)NC21CCCCC1`: the IC50 is 52.3 nM in experiment [1]; 11200 nM in experiment [7]; greater than 20000 nM in experiment [8]; greater than 20000 nM in experiment [10]; 48.2 nM in experiment [4]. Also, the inhibition at 20 µM in [5] was determined as 30.1%; in [6], 42.2%; in experiment [9], 37.7%; in experiment [11], 21.5%. Moreover, the inhibition in [2] was found to be 70.5%; in experiment [3], 72.5%.
As to `Cc1cc(Nc2ccnnc2)c(=O)n2c1C(=O)NC21CCCCC1`, the IC50 in experiment [1] is 160 nM; in experiment [7] it was 8780 nM; in [8], 13300 nM; in [10], greater than 20000 nM; in experiment [4], 162 nM. Moreover, the inhibition at 20 µM in [5] was 24.3%; in experiment [6], 22.7%; in experiment [9] it was 33%; in [11], 14%. Also, the values for the inhibition in experiment [2] and in [3] were 70.3% and 59.8%, respectively.
In the case of `Cc1cc(Nc2cn(C)nc2C#N)c(=O)n2c1C(=O)NC21CCCCC1`, the IC50 in experiment [1] and in experiment [4] was greater than 500 nM each time. Further, the inhibition turned out to be 11.9% in experiment [2] and 10.5% in experiment [3].
Take `Cc1cc(Nc2cnccn2)c(=O)n2c1C(=O)NC21CCCCC1`: the IC50 was 466 nM in experiment [1] and greater than 500 nM in experiment [4]. Further, the inhibition came to 36.8% in experiment [2] and 47.6% in experiment [3].
For `Cc1cc(Nc2cc(N)ccn2)c(=O)n2c1C(=O)NC21CCCCC1` the same measures were greater than 500 nM, greater than 500 nM, 30.8% and 43.4%.
With `Cc1cc(Nc2cccnc2)c(=O)n2c1C(=O)NC21CCCCC1`, the IC50 in experiment [1] and in experiment [4] was greater than 500 nM throughout. Besides, the values for the inhibition in experiment [2] and in experiment [3] were 13.3% and 20.2%, respectively.
On to `Cc1cc(Nc2cncc(N)n2)c(=O)n2c1C(=O)NC21CCCCC1`, for which the IC50 in [1] and in experiment [4] was greater than 500 nM in each case. In addition, the values for the inhibition in experiment [2] and in experiment [3] were 33.2% and 25.3%, respectively.
As for `Cc1cc(Nc2cc(N3CCC(N)CC3)ncn2)c(=O)n2c1C(=O)NC21CCCCC1`, the IC50 in experiment [1] is 125 nM; in experiment [7], 9960 nM; in [8], greater than 20000 nM; in experiment [10], 17700 nM; in experiment [4] it was 82 nM. Also, the inhibition at 20 µM turned out to be 36.5% in experiment [5], 46.8% in [6], 42% in experiment [9] and 50.1% in [11]. Further, the figures for the inhibition in experiment [2] and in experiment [3] were 64.3% and 62.7%, respectively.
Consider `Cc1cc(Nc2ccncn2)c(=O)n2c1C(=O)NC21CCCCC1`, for which the IC50 is 10.5 nM in experiment [1]; 6220 nM in [7]; greater than 20000 nM in experiment [8]; 14200 nM in experiment [10]; 8.3 nM in experiment [4]. Further, the inhibition at 20 µM in experiment [5] worked out at 48.3%; in experiment [6], 40.1%; in [9], 52.4%; in experiment [11] it was 40.5%. Further, the inhibition was 97.3% in [2] and 82.2% in experiment [3].
As for `Cc1cc(Nc2ccncc2)c(=O)n2c1C(=O)NC21CCCCC1`, the IC50 in experiment [1] is 240 nM; in experiment [7], greater than 20000 nM; in experiment [8], greater than 20000 nM; in experiment [10], greater than 20000 nM; in experiment [4] it was 138 nM. Besides, the inhibition at 20 µM in [5] came to 24%; in experiment [6], 12.9%; in experiment [9], 48.6%; in [11] it was 23.1%. The inhibition in [2] is 88.3%; in [3] it was 60.7%.
Turning to `Cc1cc(Nc2cc(N3CCCCC3)ncn2)c(=O)n2c1C(=O)NC21CCCCC1`, the IC50 was 476 nM in experiment [1] and 452 nM in experiment [4]. In addition, the figures for the inhibition in experiment [2] and in [3] were 50.3% and 37.5%, respectively.
As to `Cc1cc(Nc2cccnn2)c(=O)n2c1C(=O)NC21CCCCC1`, the IC50 in [1] and in experiment [4] was greater than 500 nM in each case. Besides, the inhibition in experiment [2] came out at 23.9%; in experiment [3], 25.9%.
For the molecule `Cc1cc(Nc2cc(C)c3n(c2=O)C2(CCCCC2)NC3=O)ccn1`, the concentration for half-maximal inhibition (IC50) in [1] came out at 422 nM; in experiment [4] it was 398 nM. Moreover, the inhibition in experiment [2] came to 45.2%; in experiment [3], 26.8%.
Taken in the same sequence, the figures for `Cc1cc(Nc2cn(C)nc2C(F)F)c(=O)n2c1C(=O)NC21CCCCC1` were greater than 500 nM, greater than 500 nM, 14.6% and 25.4%.
